From US7514562B2, “Urea derivatives and their use as vanilloid receptor antagonists in the treatment of pain” (Glaxo Group Limited, priority 2003, dated 2009)

Biological target: T1, human VR1 (Homo sapiens, UniProt Q8NER1)
T1 construct: expressed in transfected cells
Test: FLIPR based calcium assay, antagonism of capsaicin response in 1321N1 cells stably expressing human VR1
Assay type: cell-based
Conditions: transfected astrocytoma 1321N1 cells, 30 min pre-incubation, capsaicin challenge; pKb generated from IC50 using the Cheng-Prusoff equation
Protocol: The plates were then washed 4 times with Tyrode containing 1.5 mM calcium, without probenecid. […] Capsaicin (Sigma) was then added to the cells. Compounds having antagonist activity against the human VR1 were identified by detecting differences in fluorescence when measured after capsaicin addition, compared with no compound buffer controls.

T1 sequence (Q8NER1 whole entry): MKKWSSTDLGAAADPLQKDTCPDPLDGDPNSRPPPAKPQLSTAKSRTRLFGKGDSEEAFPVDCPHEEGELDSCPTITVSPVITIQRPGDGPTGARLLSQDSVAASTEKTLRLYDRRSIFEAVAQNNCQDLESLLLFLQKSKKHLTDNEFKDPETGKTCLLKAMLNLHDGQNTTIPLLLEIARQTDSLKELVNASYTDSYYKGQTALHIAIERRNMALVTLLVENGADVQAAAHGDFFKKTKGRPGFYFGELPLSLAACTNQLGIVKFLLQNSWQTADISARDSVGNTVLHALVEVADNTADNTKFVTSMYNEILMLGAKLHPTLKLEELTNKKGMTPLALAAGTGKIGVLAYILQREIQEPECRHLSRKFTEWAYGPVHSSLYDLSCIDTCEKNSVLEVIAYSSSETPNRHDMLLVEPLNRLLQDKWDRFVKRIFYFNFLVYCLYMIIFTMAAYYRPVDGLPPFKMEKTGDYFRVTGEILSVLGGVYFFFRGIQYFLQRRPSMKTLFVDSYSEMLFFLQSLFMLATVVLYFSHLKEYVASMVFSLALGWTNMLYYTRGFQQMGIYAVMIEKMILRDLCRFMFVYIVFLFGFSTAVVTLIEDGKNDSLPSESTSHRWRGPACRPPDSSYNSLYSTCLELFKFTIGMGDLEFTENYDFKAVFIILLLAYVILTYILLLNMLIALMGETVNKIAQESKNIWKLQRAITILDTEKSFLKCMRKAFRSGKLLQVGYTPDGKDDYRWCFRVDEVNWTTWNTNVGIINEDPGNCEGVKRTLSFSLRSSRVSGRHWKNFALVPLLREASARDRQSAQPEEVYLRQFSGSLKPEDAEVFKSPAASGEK

Kb: < 100 nM
SMILES: Cc1cc2c(NC(=O)NC3CN(c4ccc(C(F)(F)F)cn4)C3)cccc2nn1 [Example 16]
